# Experimental data reported in patent publication US12594292B2, “Antiviral prodrugs, intermediate-and long-acting formulations and methods” (priority 2022, dated 2026).
# Tests used:
# SARS-CoV-2 [1] = test: SARS-CoV-2 infection assay in TMPRSS2-Vero cells, nucleocapsid immunofluorescence (Example 6); format: cell-based; conditions: MOI 0.01, 32 hours
# [2] = test system: SARS-CoV-2 isolate USA-WA1/2020; test: SARS-CoV-2 infection in Calu-3 cells, qRT-PCR (Example 7); format: cell-based
# [3] = test system: SARS-CoV-2 isolate USA-WA1/2020; test: SARS-CoV-2 infection in PSC-human lung cells, qRT-PCR (Example 7); format: cell-based
# [4] = test system: SARS-CoV-2 isolate USA-WA1/2020; test: SARS-CoV-2 infection in Vero E6 cells, qRT-PCR of Spike RNA (Example 3); format: cell-based
# Calu-3 cells = test: Cell viability assay CellTiter-Glo, Calu-3 cells (Example 7); conditions: Calu-3 cells, CellTiter-Glo
# Huh7.5 cells [5] = test: Cell viability assay CellTiter-Glo, Huh7.5 cells (Example 7)
# PSC-human lung cells = test: Cell viability assay CellTiter-Glo, PSC-human lung cells (Example 7)
# Huh7.5 cells [6] = test: Cytotoxicity in Huh7.5 cells, nuclei count (Example 6); format: cell-based, human
# Hep-2 cells = test: Cell viability assay for the RSV table (CC50); format: cell-based
# SARS-CoV-2 [7] = test: SARS-CoV-2 infection assay in Huh7.5 cells, nucleocapsid immunofluorescence (Example 6); format: cell-based; conditions: MOI 0.1, 48 hours
# VERO E6 cells = test: CellTiter-Glo luminescent cell viability assay, Vero E6 (Example 3); format: cell-based
# Description: CellTiter-glo luminescent cell viability assay: Approximately 10^4 Vero E6 cells per well were seeded in opaque walled 96 well cell culture plates and incubated overnight. Compounds or controls were added at the indicated concentrations. […] Viability was calculated compared to untreated controls and CC50 values were calculated using Prism 8.
# Determination of Cytotoxicity: The 50% cytotoxic concentrations (CC50) were determined with Cell Titer Glo (Cat. #G7570, Promega, Madison, WI) according to the manufacturer's instructions. The calculated CC50 values are shown in the foregoing table.
# Relative viability was measured by CellTiter-Glo luminescent cell viability assay, as depicted at FIG. 2.
# TMPRSS2-Vero cells = test: Cytotoxicity in TMPRSS2-Vero cells, nuclei count (Example 6); format: cell-based
# [8] = test system: USA WA-01 strain of SARS CoV-2; test: Anti-coronavirus activity in Vero E6 cells, qPCR of spike RNA (Example 2); format: cell-based
# Description: Ten thousand Vero E6 cells were seeded in 100 microliters of culture medium in 96 well plates. The following day serial two-fold dilutions of antiviral compounds or the DMSO-containing vehicle were added to each well. The USA WA-01 strain of SARS CoV-2 was added to each well at a multiplicity of infection of 0.1 thirty minutes later. Cells were incubated for 48 hours, washed twice in PBS and lysed with TRIzol. RNA was extracted using Directzol micro RNA columns. RNA was made into cDNA and assayed for the SARS CoV-2 spike protein and for a housekeeping gene (RPLPO) RNA by qPCR. Data represents the average of duplicate wells. Cellular cytotoxicity was also measured in VERO E6 cells. […] Cytotoxicity (CC50) was assessed using a commercially available MTT assay.
# [9] = test system: SARS-CoV-2 isolate USA-WA1/2020; test: SARS-CoV-2 infection in Vero E6 cells, qRT-PCR (Example 7); format: cell-based
# SARS-CoV-2 [10] = test: SARS-CoV-2 infection assay in Calu-3 cells, nucleocapsid immunofluorescence (Example 6); conditions: MOI 0.01, 44 hour
# [11] = Vero E6 cells, MOI 0.01, 48 hours, mean±SD
# [12] = based on the EC50 values, Vero E6
# [13] = Vero E6 cells, MOI 0.1, 48 hours
structure (smiles),measurement,setting,value
"CCCCCCCCCCCCCCCCCCOC[C@H](COP(=O)(O)OC[C@H]1O[C@@](C#N)(c2ccc3c(N)ncnn23)[C@H](O)[C@@H]1O)OCc1ccccc1 [Compound 15d, 1-O-octadecyl-2-O-benzyl-sn-glyceryl-phospho-RVn]",EC50,SARS-CoV-2 [1],205 nM
same,EC90,SARS-CoV-2 [1],432 nM
same,Selectivity,"[2]; CC50/EC50, Calu-3 cells",327
same,EC90,"[2]; Calu-3 cells, MOI 0.01, 48 hours",330 nM
same,EC50,"[2]; Calu-3 cells, MOI 0.01, 48 hours, listed as ODBG-P-RVn",300 nM
same,Selectivity,"[3]; CC50/EC50, PSC-human lung cells",410
same,EC90,"[3]; PSC-human lung cells, MOI 0.01, 48 hours",260 nM
same,Selectivity,"[4]; CC50/EC50, Vero E6",240
same,EC50,[4]; [11],190 ± 23 nM
same,EC90,[4]; [11],560 ± 0.2 nM
same,times more active than RDV,[4]; [12],24
same,times more active than RVn,[4]; [12],8.9
same,CC50,Calu-3 cells,98200 nM
same,CC50,Huh7.5 cells [5],62900 nM
same,CC50,PSC-human lung cells,61500 nM
same,CC50,Huh7.5 cells [6],> 20000 nM
same,CC50,Hep-2 cells,14700 nM
same,EC50,SARS-CoV-2 [7],138 nM
same,EC90,SARS-CoV-2 [7],377 nM
same,CC50,VERO E6 cells,46000 nM
same,CC50,TMPRSS2-Vero cells,> 20000 nM
same,Selectivity Index,"[8]; CC50/EC50, Vero E6",>238
same,EC50,[8]; [13],210 nM
same,EC90,[8]; [13],560 nM
same,Selectivity,"[9]; CC50/EC50, Vero E6 cells",699
same,EC50,"[9]; Vero E6 cells, MOI 0.01, 48 hours",140 nM
same,EC90,"[9]; Vero E6 cells, MOI 0.01, 48 hours, listed as ODBG-P-RVn, 15d",160 nM
same,EC50,SARS-CoV-2 [10],164 ± 20 nM
same,EC90,SARS-CoV-2 [10],536 ± 138 nM
